Here are results for 120 molecules from patent US10703784B2, “Antigens and epitopes derived from Mycobacterium tuberculosis” (priority 2011, dated 2020).

Where “and” joins values, the source holds several entries; their conditions need not be identical. Identical values can stand only once.

B1: Rv3330: MTB protein, novel CD4 T cell antigen; Cell wall and cell processes (protein, listed as Mycobacterium tuberculosis)
chain: MAFLRSVSCLAAAVFAVGTGIGLPTAAGEPNAAPAACPYKVSTPPAVDSSEVPAAGEPPLPLVVPPTPVGGNALGGCGIITAPGSAPAPGDVSAEAWLVADLDSGAVIAARDPHGRHRPASVIKVLVAMASINTLTLNKSVAGTADDAAVEGTKVGVNTGGTYTVNQLLHGLLMHSGNDAAYALARQLGGMPAALEKINLLAAKLGGRDTRVATPSGLDGPGMSTSAYDIGLFYRYAWQNPVFADIVATRTFDFPGHGDHPGYELENDNQLLYNYPGALGGKTGYTDDAGQTFVGAANRDGRRLMTVLLHGTRQPIPPWEQAAHLLDYGFNTPAGTQIGTLIEPDPSLMSTDRNPADRQRVDPQAAARISAADALPVRVGVAVIGALIVFGLIMVARAMNRRPQH
B2: Rv1788: MTB protein, novel CD4 T cell antigen; PE/PPE (protein, listed as Mycobacterium tuberculosis)
chain: MSFVTTQPEALAAAAGSLQGIGSALNAQNAAAATPTTGVVPAAADEVSALTAAQFAAHAQIYQAVSAQAAAIHEMFVNTLQMSSGSYAATEAANAAAAG
B3: Rv3615c: MTB antigen functionally linked to Esx-1 (Millington et al., 2011); single antigen, not part of an antigenic island (protein, UniProt P9WJD7 2-103, looked up)
ESX-1 secretion-associated …: TENLTVQPERLGVLASHHDNAAVDASSGVEAAAGLGESVAITHGPYCSQFNDTLNVYLTAHNALGSSLHTAGVDLAKSLRIAAKIYSEADEAWRKAIDGLFT

One assay concerns PBMCs from LTBI donors (IFN-γ production). Format: cell-based, human.
Details: not given
With HTVLVATNFFGINTI, the SFC turned out to be 331.7.

The assay is the same for the next values; noted with them: fraction of 28 LTBI donors responding to epitopes of the antigen, ex vivo IFN-γ ELISPOT.
As for “Rv0289: MTB protein, novel CD4 T cell antigen; Cell wall and cell processes, Island 1, Esx-3”, the Resp. freq. amounted to 29%. The same measure, in the same setting: in the case of “Rv1243c: MTB protein, novel CD4 T cell antigen; PE/PPE” it was 11%.

Consider “Rv2853: MTB protein, novel CD4 T cell antigen; PE/PPE”, for which the Resp. freq. turned out to be 11%. As to “Rv3022c: MTB protein, novel CD4 T cell antigen; PE/PPE, Island 2”, the Resp. freq. is 18%.

As for B1, the Resp. freq. came to 29%.

B2 displayed a Resp. freq. of 25%.

The same assay, now with this note: individual MTB epitope peptide; one value per responding LTBI donor.
In the case of AAAQASAAAAAYEAA, the SFC was found to be 20.0. For the molecule AAFDYADGAAEDELS, the SFC was 21.7.

With AAHAGEYGQMVTLRG, the SFC was 23.3. Molecule AAVIVGSGRIASLYV had an SFC of 23.3. ADKNPLFLDEQLTRA returned an SFC of 45.0. On the same count and under the same terms, as for ADVLTMKAVRAATAL, the figure is 41.7; as for AELFRLQTEFVKLQE, 85.0; as for AGAMGAYAAAEAANA, 111.7. Consider AGGFGGAGAGIANFL, for which the SFC amounted to 20.0. In turn, AGISSLIIDPNPMFV yielded an SFC of 88.3. For AGTLSTFFGVPLVLT, the SFC came out at 21.7. In the case of AGYPAELAYFEVLHE, the SFC is reported as 23.3. For AHESLCFAGANLIPL, the SFC is recorded as 25.0.

As to AHLIHFAAANLRNPG, the SFC came out at 30.0. Turning to ALEMFYDDDADLSII, the SFC was found to be 25.0. Molecule ALLWLADQVDAALEK returned an SFC of 48.3.

With ALPRLLRRLVIMGGM, the SFC is recorded as 128.3. Take ALRILVYSDNVQTRE: the SFC is 91.7. In the case of ALVEEYLRGLRQAAG, the SFC came out at 30.0. The same measure, in the same setting: in the case of AMNEAFVAMLGASAD it was 31.7; in that of APPNLIRAILRAPVD, 30.0; in that of APVVILAHGFPELAY, 23.3.

APWQQVLRNLGIDIG: the SFC was 96.7. Take AQEYQALSAQAAAFH: the SFC is 41.7. AQIIHRITATARHPG came in with an SFC of 53.3. In turn, AQTSQFVMAMINYED registered an SFC of 26.7. Same read-out and setting: in the case of ARFHQQFVQALTASV it was 35.0.

ARVFLDSVLPALGEE gave an SFC of 38.3. Molecule ASMSMAAAASPYVGW had an SFC of 78.3. Regarding ASVGSYAAAEAANAS, the SFC was 38.3.

The molecule AVDAVFVGSCTNGRI returned an SFC of 46.7. As for AVITELIAMLRHHHI, the SFC is 40.0. On the same count and under the same terms, as for AVLEDPYILLVSSKV, the figure is 21.7; as for AVLLEKIVADEEEHI, 26.7 and 28.3. On to AVSIGILLSLIAPLG, for which the SFC is reported as 55.0. As for AVVVLKRLPDALADG, the SFC amounted to 25.0. The molecule CLGSHLARLELTLLV registered an SFC of 91.7. Still for that read-out and setting: as for CRGYDVVILDRYVAS, the figure is 21.7. Still for that read-out and setting: as for CRRYEVLLIFDEIAT, the figure is 65.0; as for CSEDLLYLSDLDFDV, 33.3. In the case of DDIPRVLAEAFHIAA, the SFC turned out to be 31.7. Consider DLDSYLVEITAEVLR, for which the SFC is recorded as 23.3. With DMTKIVGLRARAKAA, the SFC was found to be 35.0. The same measure, in the same setting: in the case of DPINEFFLANTGRPL it was 66.7; in that of DPVKGADEVVAFAEE, 813.3. Regarding DSTVITDGDIVNIDV, the SFC was 31.7. DTEVYLDAASLSPFV: the SFC came to 266.7. On to DTQSMIVTDHRYVPA, for which the SFC worked out at 33.3. On to DVIHAFWVPEFLFKR, for which the SFC is reported as 158.3. As to DVTIRFRRFFSRLQR, the SFC was 50.0. Consider EGGNQIVQYLVAQKI, for which the SFC is 25.0.

EHFGHERYDAFFSLA registered an SFC of 66.7.

For the molecule EHIHRPNTNNVGPII, the SFC is 65.0.

For EIYLNTFRHLYGLDC, the SFC is given as 25.0. Still for that read-out and setting: in the case of EKMRVAGRIAAGALA it was 20.0; in that of ELADLIEFARTVNEE, 43.3. On to EMLSMLRAMLAPESL, for which the SFC turned out to be 40.0. Consider ENFFMFIAEEVREYL, for which the SFC is 23.3 and 65.0. The molecule EPGDIIIDGGNALYT showed an SFC of 35.0.

In turn, EQMLIDDGILLRKYW returned an SFC of 178.3. Take ERYVGLYLPFLDMSF: the SFC came out at 23.3.

In turn, ESALFFIGVLIVALL returned an SFC of 55.0. For the molecule ESGASYAARDALAAA, the SFC is 45.0. As for ESVFAATVAELESLI, the SFC was determined as 36.7.

ETLYWLAQPGIRESI: the SFC is reported as 31.7. EVNIKILIDSLVSAG returned an SFC of 201.7. As to FFGQNAPAIAAIEAA, the SFC is 20.0 and 21.7.

On to FLMSVGALIIGWLLQ, for which the SFC is listed as 26.7. The same measure, in the same setting: as for FRVVISSRFGDIFRG, the figure is 20.0.

In turn, FSLVNFFDAQVGPLS came in with an SFC of 43.3. With GAYAAAEAANVSAAQ, the SFC came to 176.7.

In turn, GFTIANHNAAAVGEI returned an SFC of 140.0. Same read-out and setting: in the case of GQQYQAMSAQAAAFH it was 50.0; in that of GSAENFSVVEALADS, 138.3 and 20.0.

With GSTINAANAAAALPT, the SFC is 36.7 and 190.0. The same measure, in the same setting: in the case of HPQQFIYAGSLSALL it was 35.0. Still for that read-out and setting: as for IGLVLIAVLVFVPRV, the figure is 38.3; as for IGSSIGAANAAAAGS, 45.0; as for ITPDEGAYAFEALLR, 28.3. Same read-out and setting: in the case of KMAPVLRQIYDQMAE it was 66.7.

LDWFCLFSSAAALTG came in with an SFC of 23.3. As to LLSTRGYITAEKIRS, the SFC was 35.0.

LPLLVPLRAIPLLGN returned an SFC of 20.0. As to LRLLVIALKHNVILN, the SFC is 31.7. Same read-out and setting: as for LTVDAGAYASAEAAN, the figure is 31.7 and 58.3; as for LVAQEAAAAGTPLVT, 23.3.

Regarding LVLVIDDEPQILRAL, the SFC was found to be 81.7. As to LYRPGLVHIYHALTW, the SFC is recorded as 28.3. On to MAKTIAYDEEARRGL, for which the SFC was 38.3 and 56.7.

MDYFIRMWNQAALAM: the SFC is 46.7.

Molecule NPFPFLRQIIANQQV returned an SFC of 26.7. In the case of NRASLMQLISTNVFG, the SFC came to 21.7.

PPEVNSARVFAGAGS: the SFC was 38.3 and 31.7. In turn, QAARGIRPLFDDITE yielded an SFC of 21.7. In the case of QAFRSRFGENFFYIL, the SFC was found to be 31.7.

Regarding QAVLTATNFFGINTI, the SFC was determined as 341.7. In turn, QLSAEYASTAAELSG came in with an SFC of 26.7.

As for QRPRMLYDYFHQLFA, the SFC is given as 141.7. QTLVYKGMLTTPQLK had an SFC of 40.0. In the case of RARQGFRDIEFHPTI, the SFC was 45.0 and 28.3. On the same count and under the same terms, as for RVIEDALRFYFESHE, the figure is 141.7; as for RVLLAGWEQFDEPVD, 101.7; as for SAAGSYAAAEAANAS, 91.7 and 21.7. In turn, SEFNEVFFNDVFVPD registered an SFC of 41.7. Consider SILDMRQLFDGIDLS, for which the SFC was 26.7.

For SLAVKTFEDLFAELG, the SFC was determined as 23.3. SQVIEAVNLFRANVI had an SFC of 33.3.

With TDNGAMIAAFAAQLV, the SFC is 203.3 and 30.0. On to TGIFGLVLVICVVLI, for which the SFC amounted to 35.0. For the molecule TVAWTMLGVALSAYE, the SFC was 50.0 and 25.0.

On to VDVEDGRVIVDEYQR, for which the SFC came out at 20.0. YLAWLSTAAAQAEQA: the SFC is 145.0 and 100.0.

The same assay, now with this note: result in words.
Consider B3, for which the “recognition by LTBI donors” value is given as “prevalently recognized”.

The same assay, now with this note: total spot-forming cells, LTBI donors, ex vivo IFN-γ ELISPOT.
Turning to “Rv0289: MTB protein, novel CD4 T cell antigen; Cell wall and cell processes, Island 1, Esx-3”, the “Total SFC” value stood at 2298 SFC.

“Rv1243c: MTB protein, novel CD4 T cell antigen; PE/PPE”: the “Total SFC” value is on record as 114 SFC. Consider “Rv2853: MTB protein, novel CD4 T cell antigen; PE/PPE”, for which the “Total SFC” value amounted to 85 SFC. For the molecule “Rv3022c: MTB protein, novel CD4 T cell antigen; PE/PPE, Island 2”, the “Total SFC” value is 109 SFC. As to B1, the “Total SFC” value is 1595 SFC.

On to B2, for which the “Total SFC” value was found to be 347 SFC.
